Results as given in ChEMBL document CHEMBL3525899, “Identification of the cytochrome P450 and other enzymes involved in the in vitro oxidative metabolism of a novel antidepressant, Lu AA21004” (Drug Metab Dispos, 2012).

Tests used:
Cytochrome P450 2A6 = biological target: T1, Cytochrome P450 2A6 (Homo sapiens, UniProt P11509); experiment: Activity of human recombinant CYP2A6 expressed in microsomes isolated from human AHH-1 cells assessed as enzyme-mediated compound formation treated with Lu AA21004 at 8 to 50 uM after 120 mins by HPLC/MS-MS analysis in presence of NADPH regenerating system with NADP+; assay type: ADME, cell-free; settings: 2 h
T1 sequence (P11509 whole entry): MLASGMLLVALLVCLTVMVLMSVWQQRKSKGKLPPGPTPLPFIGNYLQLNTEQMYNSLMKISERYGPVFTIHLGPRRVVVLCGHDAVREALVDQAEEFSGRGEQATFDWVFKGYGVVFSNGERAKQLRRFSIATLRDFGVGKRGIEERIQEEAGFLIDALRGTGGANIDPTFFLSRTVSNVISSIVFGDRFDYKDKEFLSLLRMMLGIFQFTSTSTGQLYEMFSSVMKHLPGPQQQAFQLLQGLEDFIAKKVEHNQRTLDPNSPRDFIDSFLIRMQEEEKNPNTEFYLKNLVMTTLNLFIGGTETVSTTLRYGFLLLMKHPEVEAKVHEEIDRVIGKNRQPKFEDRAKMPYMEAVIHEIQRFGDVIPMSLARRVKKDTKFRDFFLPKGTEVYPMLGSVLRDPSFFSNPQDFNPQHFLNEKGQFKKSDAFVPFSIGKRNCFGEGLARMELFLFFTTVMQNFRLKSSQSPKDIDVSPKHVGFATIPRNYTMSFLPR

Liver microsome [1] = experiment: Drug level in pooled human liver microsomes treated with Lu AA21004 at 100 uM after 30 to 180 mins by HPLC/MS-MS analysis in presence of NADPH regenerating system with NADP+; assay type: ADME
Liver microsome [2] = experiment: Drug level in phenotyped human liver microsomes treated with Lu AA21004 at 8 to 50 uM after 60 mins by HPLC/MS-MS analysis in presence of NADPH regenerating system with NADP+; assay type: ADME; settings: 1 h
Cytochrome P450 3A4 = Cytochrome P450 3A4 (Homo sapiens, UniProt P08684); experiment: Activity of human recombinant CYP3A4 expressed in microsomes isolated from human AHH-1 cells assessed as enzyme-mediated compound formation treated with Lu AA21004 at 8 to 50 uM after 120 mins by HPLC/MS-MS analysis in presence of NADPH regenerating system with NADP+; assay type: ADME, cell-free; settings: 2 h
Cytochrome P450 2C8 = biological target: T2, Cytochrome P450 2C8 (Homo sapiens, UniProt P10632); experiment: Activity of human recombinant CYP2C8 expressed in microsomes isolated from human AHH-1 cells assessed as enzyme-mediated compound formation treated with Lu AA21004 at 8 to 50 uM after 120 mins by HPLC/MS-MS analysis in presence of NADPH regenerating system with NADP+; assay type: ADME, cell-free; settings: 2 h
T2 sequence (P10632 whole entry): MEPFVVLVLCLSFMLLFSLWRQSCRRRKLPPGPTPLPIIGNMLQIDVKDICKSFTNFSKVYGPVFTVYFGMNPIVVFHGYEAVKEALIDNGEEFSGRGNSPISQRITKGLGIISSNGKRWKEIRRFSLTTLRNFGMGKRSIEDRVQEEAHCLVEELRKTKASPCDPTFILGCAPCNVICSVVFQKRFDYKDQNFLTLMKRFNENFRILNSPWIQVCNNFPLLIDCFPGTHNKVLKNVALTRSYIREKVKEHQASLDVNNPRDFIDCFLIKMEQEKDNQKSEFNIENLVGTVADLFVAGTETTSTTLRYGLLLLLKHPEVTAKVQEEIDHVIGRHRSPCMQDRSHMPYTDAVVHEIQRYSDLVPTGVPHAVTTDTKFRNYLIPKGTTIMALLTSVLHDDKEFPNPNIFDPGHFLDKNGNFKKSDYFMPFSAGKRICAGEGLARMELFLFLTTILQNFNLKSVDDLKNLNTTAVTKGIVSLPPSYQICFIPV

Liver microsome [3] = experiment: Drug level in human liver microsomes treated with (3-methyl-4-(2-(piperazin-1-yl)phenylthio)phenyl)methanol at 50 uM after 20 mins by HPLC/MS-MS analysis in presence of NADPH regenerating system with NADP+; assay type: ADME
Liver microsome [4] = experiment: Drug level in human liver microsomes treated with (3-methyl-4-(2-(piperazin-1-yl)phenylthio)phenyl)methanol at 50 uM after 20 mins by HPLC/MS-MS analysis in absence of NADPH regenerating system with NADP+; assay type: ADME
[5] = Drug level in pooled human liver S9 fractions treated with (3-methyl-4-(2-(piperazin-1-yl)phenylthio)phenyl)methanol at 2 to 50 uM after 20 mins by HPLC/MS-MS analysis in presence of NADPH regenerating system with NAD+ and xanthine oxidase inhibitor allopurinol; assay type: ADME, subcellular, Liver S9 fraction; settings: s9, 20 min
[6] = Drug level in human liver S9 fractions treated with (3-methyl-4-(2-(piperazin-1-yl)phenylthio)phenyl)methanol at 8 to 50 uM after 20 mins by HPLC/MS-MS analysis in presence of NADPH regenerating system with NAD+; assay type: ADME, subcellular, Liver S9 fraction; settings: s9, 20 min
Liver microsome [7] = experiment: Drug level in phenotyped human liver microsomes treated with (3-methyl-4-(2-(piperazin-1-yl)phenylthio)phenyl)methanol at 8 to 50 uM after 15 mins by HPLC/MS-MS analysis in presence of NADPH regenerating system with NADP+; assay type: ADME; settings: 0.25 h
Cytochrome P450 2D6 [8] = biological target: T3, Cytochrome P450 2D6 (Homo sapiens, UniProt P10635); experiment: Activity of human recombinant CYP2D6 expressed in microsomes isolated from human AHH-1 cells assessed as enzyme-mediated compound formation treated with (3-methyl-4-(2-(piperazin-1-yl)phenylthio)phenyl)methanol at 8 to 50 uM after 120 mins by HPLC/MS-MS analysis in presence of NADPH regenerating system with NADP+; assay type: ADME, cell-free; settings: 2 h
Liver = experiment: Drug level in human liver S9 fractions treated with (3-methyl-4-(2-(piperazin-1-yl)phenylthio)phenyl)methanol at 8 to 50 uM after 20 mins by HPLC/MS-MS analysis in absence of NADPH regenerating system with NAD+; assay type: ADME, tissue-based; settings: s9, 20 min
Cytochrome P450 2D6 [9] = biological target: T3, Cytochrome P450 2D6; experiment: Activity of human recombinant CYP2D6 expressed in microsomes isolated from human AHH-1 cells assessed as enzyme-mediated compound formation treated with Lu AA21004 at 8 to 50 uM after 120 mins by HPLC/MS-MS analysis in presence of NADPH regenerating system with NADP+; assay type: ADME, cell-free; settings: 2 h
Cytochrome P450 2C9 = Cytochrome P450 2C9 (Homo sapiens, UniProt P11712); experiment: Activity of human recombinant CYP2C9 expressed in microsomes isolated from human AHH-1 cells assessed as enzyme-mediated compound formation treated with Lu AA21004 at 8 to 50 uM after 120 mins by HPLC/MS-MS analysis in presence of NADPH regenerating system with NADP+; assay type: ADME, cell-free; settings: 2 h
Cytochrome P450 2C19 = Cytochrome P450 2C19 (Homo sapiens, UniProt P33261); experiment: Activity of human recombinant CYP2C19 expressed in microsomes isolated from human AHH-1 cells assessed as enzyme-mediated compound formation treated with Lu AA21004 at 8 to 50 uM after 120 mins by HPLC/MS-MS analysis in presence of NADPH regenerating system with NADP+; assay type: ADME, cell-free; settings: 2 h
Liver microsome [10] = experiment: Uncompetitive substrate inhibition in pooled human liver microsomes assessed as formation of 3-methyl-4-(2-(piperazin-1-yl)phenylthio)benzoic acid after 20 mins by Michaelis-Menten plot analysis in presence of NADPH regenerating system with NADP+; assay type: ADME
[11] = Drug metabolism in pooled human liver S9 fractions assessed as formation of 3-methyl-4-(2-(piperazin-1-yl)phenylthio)benzoic acid after 20 mins by Michaelis-Menten plot analysis in presence of NADPH regenerating system with NADP+; assay type: ADME, subcellular, Liver S9 fraction; settings: s9, 20 min, read-out: Km(app)
Liver microsome [12] = experiment: Drug metabolism in human liver microsomes assessed as formation of 3-methyl-4-(2-(piperazin-1-yl)phenylthio)benzoic acid at 50 uM after 20 mins by HPLC/MS-MS analysis in absence of NADPH regenerating system with NADP+; assay type: ADME
[13] = Drug metabolism in pooled human liver S9 fractions assessed as formation of 3-methyl-4-(2-(piperazin-1-yl)phenylthio)benzoic acid per mg of protein after 20 mins by Michaelis-Menten plot analysis in presence of NADPH regenerating system with NADP+; assay type: ADME, subcellular, Liver S9 fraction; settings: s9, 20 min
Liver microsome [14] = experiment: Intrinsic clearance in pooled human liver microsomes assessed as Vmax(app)/Km(app) for formation of 3-methyl-4-(2-(piperazin-1-yl)phenylthio)benzoic acid per mg of protein after 20 mins by Michaelis-Menten plot analysis in presence of NADPH regenerating system with NADP+; assay type: ADME
Liver microsome [15] = experiment: Drug metabolism in phenotyped human liver microsomes assessed as formation of 3-methyl-4-(2-(piperazin-1-yl)phenylthio)benzoic acid at 8 to 50 uM after 15 mins by HPLC/MS-MS analysis in presence of NADPH regenerating system with NADP+; assay type: ADME; settings: 0.25 h
[16] = Intrinsic clearance in pooled human liver S9 fractions assessed as Vmax(app)/Km(app) for formation of 3-methyl-4-(2-(piperazin-1-yl)phenylthio)benzoic acid per mg of protein after 20 mins by Michaelis-Menten plot analysis in presence of NADPH regenerating system with NADP+; assay type: ADME, subcellular, Liver S9 fraction; settings: s9, 20 min
Liver microsome [17] = experiment: Drug metabolism in human liver microsomes assessed as formation of 3-methyl-4-(2-(piperazin-1-yl)phenylthio)benzoic acid at 50 uM after 20 mins by HPLC/MS-MS analysis in presence of NADPH regenerating system with NADP+; assay type: ADME
[18] = Drug metabolism in human liver S9 fractions assessed as formation of 3-methyl-4-(2-(piperazin-1-yl)phenylthio)benzoic acid at 8 to 50 uM after 20 mins by HPLC/MS-MS analysis in presence of NADPH regenerating system with NAD+; assay type: ADME, subcellular, Liver S9 fraction; settings: s9, 20 min
Liver microsome [19] = experiment: Drug metabolism in pooled human liver microsomes assessed as formation of 3-methyl-4-(2-(piperazin-1-yl)phenylthio)benzoic acid per mg of protein after 20 mins by Michaelis-Menten plot analysis in presence of NADPH regenerating system with NADP+; assay type: ADME
[20] = Drug metabolism in pooled human liver S9 fractions assessed as formation of 3-methyl-4-(2-(piperazin-1-yl)phenylthio)benzoic acid at 2 to 50 uM after 20 mins by HPLC/MS-MS analysis in presence of NADPH regenerating system with NAD+, aldehyde dehydrogenase inhibitor disulfiram, aldehyde oxidase inhibitor raloxifene and alcohol dehydrogenase inhibitor 4-methylpyrazole; assay type: ADME, subcellular, Liver S9 fraction; settings: s9, 20 min
[21] = Drug metabolism in pooled human liver S9 fractions assessed as formation of 3-methyl-4-(2-(piperazin-1-yl)phenylthio)benzoic acid at 2 to 50 uM after 20 mins by HPLC/MS-MS analysis in presence of NADPH regenerating system with NAD+ and xanthine oxidase inhibitor allopurinol; assay type: ADME, subcellular, Liver S9 fraction; settings: s9, 20 min
[22] = Drug metabolism in human liver S9 fractions assessed as formation of 3-methyl-4-(2-(piperazin-1-yl)phenylthio)benzoic acid at 8 to 50 uM after 20 mins by HPLC/MS-MS analysis in absence of NADPH regenerating system with NAD+; assay type: ADME, tissue-based; settings: s9, 20 min
Liver microsome [23] = experiment: Drug metabolism in pooled human liver microsomes assessed as formation of 3-methyl-4-(2-(piperazin-1-yl)phenylthio)benzoic acid after 20 mins by Michaelis-Menten plot analysis in presence of NADPH regenerating system with NADP+; assay type: ADME; settings: read-out: Km(app)

T3 sequence (P10635 whole entry): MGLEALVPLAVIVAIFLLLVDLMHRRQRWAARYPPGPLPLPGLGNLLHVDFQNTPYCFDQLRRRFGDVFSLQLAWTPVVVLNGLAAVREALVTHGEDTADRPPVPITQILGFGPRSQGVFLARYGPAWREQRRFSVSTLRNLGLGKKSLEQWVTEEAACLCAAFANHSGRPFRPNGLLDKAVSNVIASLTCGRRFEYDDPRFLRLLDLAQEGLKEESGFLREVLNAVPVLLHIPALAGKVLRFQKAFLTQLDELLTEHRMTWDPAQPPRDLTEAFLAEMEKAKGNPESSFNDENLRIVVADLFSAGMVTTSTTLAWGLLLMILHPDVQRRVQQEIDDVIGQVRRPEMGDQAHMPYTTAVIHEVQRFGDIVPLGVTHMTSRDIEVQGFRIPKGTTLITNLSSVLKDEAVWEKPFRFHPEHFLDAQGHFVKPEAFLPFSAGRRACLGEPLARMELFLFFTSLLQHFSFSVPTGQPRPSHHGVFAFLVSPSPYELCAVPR
Chain of Cytochrome P450 2C9 (P11712 whole entry): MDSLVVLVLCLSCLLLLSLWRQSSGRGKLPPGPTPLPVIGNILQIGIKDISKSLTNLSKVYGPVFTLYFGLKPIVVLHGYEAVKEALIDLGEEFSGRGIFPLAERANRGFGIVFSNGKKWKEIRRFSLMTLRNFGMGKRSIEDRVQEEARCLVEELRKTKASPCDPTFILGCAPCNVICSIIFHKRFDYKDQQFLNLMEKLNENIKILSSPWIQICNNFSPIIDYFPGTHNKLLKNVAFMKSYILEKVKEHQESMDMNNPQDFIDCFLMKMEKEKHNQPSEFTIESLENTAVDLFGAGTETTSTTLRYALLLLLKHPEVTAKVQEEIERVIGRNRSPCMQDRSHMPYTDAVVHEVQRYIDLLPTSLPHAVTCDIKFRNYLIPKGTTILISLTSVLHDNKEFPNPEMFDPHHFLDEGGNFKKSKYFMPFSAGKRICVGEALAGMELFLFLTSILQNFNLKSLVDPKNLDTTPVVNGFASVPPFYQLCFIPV
Chain of Cytochrome P450 2C19 (P33261 whole entry): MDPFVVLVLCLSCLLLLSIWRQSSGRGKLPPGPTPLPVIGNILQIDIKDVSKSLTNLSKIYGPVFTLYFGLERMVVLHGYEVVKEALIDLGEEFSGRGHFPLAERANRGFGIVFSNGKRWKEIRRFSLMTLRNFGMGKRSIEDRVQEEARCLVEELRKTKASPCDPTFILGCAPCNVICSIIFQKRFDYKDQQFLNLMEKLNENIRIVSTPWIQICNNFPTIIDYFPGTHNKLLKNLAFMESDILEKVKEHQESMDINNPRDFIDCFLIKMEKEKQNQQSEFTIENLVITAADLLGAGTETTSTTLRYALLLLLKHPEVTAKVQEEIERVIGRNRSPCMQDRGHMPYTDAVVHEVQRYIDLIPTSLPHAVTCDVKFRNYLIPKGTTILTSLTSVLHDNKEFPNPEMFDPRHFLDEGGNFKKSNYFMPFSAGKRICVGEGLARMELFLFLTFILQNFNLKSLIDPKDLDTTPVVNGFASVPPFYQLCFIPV
Chain of Cytochrome P450 3A4 (P08684 whole entry): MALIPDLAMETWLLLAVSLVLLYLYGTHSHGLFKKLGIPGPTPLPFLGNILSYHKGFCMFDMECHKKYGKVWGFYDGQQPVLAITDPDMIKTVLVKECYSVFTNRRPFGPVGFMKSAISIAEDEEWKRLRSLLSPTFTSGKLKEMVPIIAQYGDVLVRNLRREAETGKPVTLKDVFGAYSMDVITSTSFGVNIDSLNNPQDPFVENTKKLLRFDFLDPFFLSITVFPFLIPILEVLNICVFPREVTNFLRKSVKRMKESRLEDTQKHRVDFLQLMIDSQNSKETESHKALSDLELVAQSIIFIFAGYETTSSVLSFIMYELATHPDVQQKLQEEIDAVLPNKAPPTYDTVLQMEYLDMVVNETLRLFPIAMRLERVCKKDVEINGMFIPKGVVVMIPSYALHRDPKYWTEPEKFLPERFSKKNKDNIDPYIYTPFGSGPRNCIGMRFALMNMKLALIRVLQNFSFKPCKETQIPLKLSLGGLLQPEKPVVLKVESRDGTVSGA

SMILES: Cc1ccc([S+]([O-])c2ccccc2N2CCNCC2)c(C)c1.O=C(O)/C=C/C(=O)O (centres undefined)
- Drug metabolism (Cytochrome P450 2A6): metabolite_detected
- Drug metabolism (Liver microsome [1]): metabolite_detected
- Drug metabolism (Liver microsome [2]): metabolite_detected
- Drug metabolism (Cytochrome P450 3A4): metabolite_detected
- Drug metabolism (Cytochrome P450 2C8): metabolite_detected

SMILES: Cc1cc(C(=O)O)ccc1Sc1ccccc1N1CCNCC1
- Drug metabolism (Liver microsome [1]): metabolite_detected
- Drug metabolism (Liver microsome [3]): metabolite_detected
- Drug metabolism (Liver microsome [4]): metabolite_detected
- Drug metabolism (Liver microsome [2]): metabolite_detected
- Drug metabolism [5]: metabolite_detected
- Drug metabolism [6]: metabolite_detected
- Drug metabolism (Liver microsome [7]): metabolite_detected
- Drug metabolism (Cytochrome P450 2D6 [8]): metabolite_detected
- Drug metabolism (Liver): metabolite_detected
- Drug metabolism (Cytochrome P450 2D6 [9]): metabolite_detected

SMILES: Cc1ccc(Sc2cc([O-])ccc2N2CCNCC2)c(C)c1.[Na+]
- Drug metabolism (Liver microsome [1]): metabolite_detected
- Drug metabolism (Liver microsome [2]): metabolite_detected
- Drug metabolism (Cytochrome P450 2C9): metabolite_detected
- Drug metabolism (Cytochrome P450 2C19): metabolite_detected
- Drug metabolism (Cytochrome P450 2D6 [9]): metabolite_detected

SMILES: Cc1cc(CO)ccc1Sc1ccccc1N1CCNCC1
- Ki (Liver microsome [10]): 275 µM
- Km [11]: 1.7 µM
- Drug metabolism (Liver microsome [1]): metabolite_detected
- Drug metabolism (Liver microsome [12]): metabolite_detected
- Vmax(app) [13]: 1567 pmol/min
- Drug metabolism (Liver microsome [2]): metabolite_detected
- Vmax/Km (Liver microsome [14]): 0.621 µL/min
- Drug metabolism (Liver microsome [15]): metabolite_detected
- Vmax/Km [16]: 922 µL/min
- Drug metabolism (Liver microsome [17]): metabolite_detected
- Drug metabolism (Cytochrome P450 2C9): metabolite_detected
- Drug metabolism [18]: metabolite_detected
- Vmax(app) (Liver microsome [19]): 59 pmol/min
- Drug metabolism [20]: metabolite_not_detected
- Drug metabolism [21]: metabolite_detected
- Drug metabolism [22]: metabolite_detected
- Drug metabolism (Cytochrome P450 2C19): metabolite_detected
- Drug metabolism (Cytochrome P450 2D6 [9]): metabolite_detected
- Km (Liver microsome [23]): 95 µM
